Test systems include SK-MEL-5 melanoma; HOP-92 NSCLC; SF-268 CNS; MDA-N; SNB-75 CNS; UACC-62 melanoma; UACC-257 melanoma; SNB-19 CNS; MDA-MB-435; OVCAR-3 ovarian; IGROV1 ovarian; U251 CNS; OVCAR-5 ovarian; EKVX NSCLC; DU-145 prostate; LOX IMVI melanoma; A498 renal; NCI-H226 lung; RPMI-8226 leukemia.
What all share (experiment): growth of human tumour cells (NCI), 48 h

Each structure is given as a SMILES string. Where “and” joins values, the source holds several entries; their conditions need not be identical. Equal values may be shown once.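 Briefly, cells in 96-well plates were exposed to five compound concentrations for 48 h, and endpoints were estimated by linear interpolation. GI50 = concentration required for 50% inhibition of growth. At the TGI there is no net growth.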

For `CN(C)CCCN1c2ccccc2CCc2cc([N+](=O)[O-])ccc21`, the TGI was 31.2 µM and 25.7 µM in the assay with SK-MEL-5 melanoma; 58.1 µM and 22.6 µM with HOP-92 NSCLC; 52.5 µM and 28.8 µM with SF-268 CNS; 45.3 µM and 29.1 µM with MDA-N; 26.4 µM in the assay with SNB-75 CNS; 29.2 µM and 27.5 µM in the assay with UACC-62 melanoma. In addition, the TGI in the assay with UACC-257 melanoma is 38 µM and 29.5 µM; in the assay on SNB-19 CNS, > 100 µM and 31.7 µM; in the assay with MDA-MB-435, 48.4 µM and 31.1 µM; in the assay on OVCAR-3 ovarian, 48.4 µM and 34.8 µM; in the assay on IGROV1 ovarian it was 53.2 µM and 29.8 µM; with U251 CNS, 64.2 µM and 32.9 µM. The TGI in the assay with OVCAR-5 ovarian was 63.9 µM and 31.8 µM; in the assay on EKVX NSCLC it was > 100 µM and 37.4 µM; with DU-145 prostate it was 58.9 µM and 34.6 µM; with LOX IMVI melanoma it was 37.2 µM and 28.2 µM; in the assay on A498 renal it was 61.4 µM and 25.8 µM; in the assay with NCI-H226 lung, 68 µM and 32.6 µM. Further, the TGI in the assay with RPMI-8226 leukemia was 52.6 µM and 41.2 µM. The GI50 in the assay on HOP-92 NSCLC is 21.8 µM and 7.69 µM.
Turning to `CCN(CC)CCCNc1ncc(C)c2c1c1ccc3c(O)cccc3c1n2C`, the TGI in the assay with SK-MEL-5 melanoma is 13.4 µM; in the assay on HOP-92 NSCLC, 26.6 µM; with SF-268 CNS, 36.6 µM; in the assay on MDA-N, 3.01 µM; with SNB-75 CNS it was 6.74 µM; with UACC-62 melanoma it was 49.2 µM. Also, the TGI was 31 µM in the assay with UACC-257 melanoma; 3.17 µM in the assay with SNB-19 CNS; 33.8 µM with MDA-MB-435; 18.2 µM in the assay with OVCAR-3 ovarian; 5.97 µM in the assay on IGROV1 ovarian; 2.6 µM with U251 CNS. In addition, the TGI in the assay with OVCAR-5 ovarian was found to be 11.8 µM; in the assay with EKVX NSCLC, 6.87 µM; with DU-145 prostate it was 3.79 µM; in the assay with LOX IMVI melanoma it was 2.64 µM; with A498 renal, 32 µM; with NCI-H226 lung it was 26.2 µM. The same molecule yielded a TGI in the assay on RPMI-8226 leukemia of more than 23.9 µM.
With `O=c1[nH]c2cc([N+](=O)[O-])ccc2nc1/C=C(\O)c1ccc(Cl)cc1`, the TGI in the assay with SK-MEL-5 melanoma turned out to be 51.2 µM; in the assay with HOP-92 NSCLC it was 36.6 µM; in the assay with SF-268 CNS it was 53.8 µM; in the assay on MDA-N, 78.7 µM; in the assay on SNB-75 CNS it was 55 µM; with UACC-62 melanoma it was 30.3 µM. The TGI in the assay on UACC-257 melanoma came to 60.5 µM; in the assay with SNB-19 CNS it was 24 µM; with MDA-MB-435 it was 45.2 µM; with OVCAR-3 ovarian it was 38.6 µM; in the assay with IGROV1 ovarian, 26.6 µM; in the assay on U251 CNS, 19.8 µM. Besides, the TGI in the assay with OVCAR-5 ovarian stood at 46 µM; with EKVX NSCLC, 35.5 µM; with DU-145 prostate, 23 µM; with LOX IMVI melanoma, 25.4 µM; with A498 renal it was 39.6 µM; in the assay on NCI-H226 lung, 40.6 µM. The molecule further registered a TGI in the assay with RPMI-8226 leukemia of 65.2 µM.
As for `Cc1ccc(/C=N/NS(=O)(=O)c2ccc(/C=C3\NC(=O)NC3=O)cc2)cc1`, the TGI in the assay on SK-MEL-5 melanoma was more than 100 µM; in the assay with HOP-92 NSCLC, more than 100 µM; in the assay with SF-268 CNS it was 57.7 µM; with MDA-N it was more than 100 µM; with SNB-75 CNS, 47.7 µM; in the assay with UACC-62 melanoma, more than 100 µM. The TGI in the assay on UACC-257 melanoma, with SNB-19 CNS, in the assay on MDA-MB-435, in the assay with OVCAR-3 ovarian, with IGROV1 ovarian and in the assay on U251 CNS was more than 100 µM throughout. In addition, the TGI in the assay with OVCAR-5 ovarian, in the assay on EKVX NSCLC, with DU-145 prostate, with LOX IMVI melanoma, in the assay on A498 renal and in the assay with NCI-H226 lung was more than 100 µM in each case. In addition, in the assay with RPMI-8226 leukemia, the TGI is more than 100 µM.
Regarding `COc1cccc(C2c3cc4c(cc3OC(N3CCCCC3)C2C)OCO4)c1OC` (centres undefined), the TGI turned out to be 21.5 µM in the assay on SK-MEL-5 melanoma; 37.9 µM in the assay on HOP-92 NSCLC; 48.4 µM in the assay on SF-268 CNS; 47 µM with MDA-N; 66.7 µM with SNB-75 CNS; 33.6 µM in the assay on UACC-62 melanoma. Also, the TGI in the assay on UACC-257 melanoma was 36.2 µM; with SNB-19 CNS, more than 100 µM; with MDA-MB-435 it was 33.8 µM; in the assay on OVCAR-3 ovarian it was 20.7 µM; in the assay on IGROV1 ovarian, 61.7 µM; in the assay on U251 CNS, 51.5 µM. Moreover, the TGI in the assay on OVCAR-5 ovarian stood at 79.4 µM; in the assay on EKVX NSCLC it was 54.5 µM; with DU-145 prostate, 25.5 µM; in the assay on LOX IMVI melanoma it was 20.1 µM; in the assay with A498 renal, 28.4 µM; with NCI-H226 lung, 34.8 µM. The same molecule gave a TGI in the assay on RPMI-8226 leukemia of 21.6 µM.
As for `CCOC(=O)c1cc2cc(C)cc(C(=O)c3ccc([N+](=O)[O-])cc3)c2[nH]1`, the TGI in the assay on SK-MEL-5 melanoma, in the assay on HOP-92 NSCLC, in the assay with SF-268 CNS, in the assay on MDA-N, in the assay with SNB-75 CNS and with UACC-62 melanoma was more than 100 µM each time. Also, the TGI in the assay with UACC-257 melanoma, in the assay on SNB-19 CNS, in the assay on MDA-MB-435, in the assay on OVCAR-3 ovarian, with IGROV1 ovarian and with U251 CNS was more than 100 µM each time. The TGI in the assay with OVCAR-5 ovarian, with EKVX NSCLC, with DU-145 prostate, in the assay with LOX IMVI melanoma, in the assay on A498 renal and with NCI-H226 lung was more than 100 µM each time. Also, in the assay on RPMI-8226 leukemia, the TGI is more than 100 µM.
Take `O=c1c(=[n+]2ccc(=C([O-])c3ccccc3)cc2)/c(=N/S(=O)(=O)c2ccccc2)c(=O)c2ccccc12`: the TGI in the assay with SK-MEL-5 melanoma amounted to 4.87 µM; in the assay on HOP-92 NSCLC it was 21.1 µM; in the assay with SF-268 CNS, 25.7 µM; in the assay with MDA-N it was 3.27 µM; with SNB-75 CNS, 27.7 µM; with UACC-62 melanoma, 3.73 µM. The TGI in the assay with UACC-257 melanoma was found to be 23.9 µM; with SNB-19 CNS, 26.7 µM; in the assay with MDA-MB-435 it was 3.1 µM; with OVCAR-3 ovarian it was 13.6 µM; in the assay on IGROV1 ovarian, 23 µM; in the assay on U251 CNS, 16.1 µM. Also, the TGI was determined as 33.7 µM in the assay with OVCAR-5 ovarian; 27 µM in the assay with EKVX NSCLC; 26.8 µM with DU-145 prostate; 9.45 µM in the assay on LOX IMVI melanoma; 32 µM in the assay with A498 renal; 30.8 µM with NCI-H226 lung. In the assay with RPMI-8226 leukemia, this molecule came in with a TGI of 18.9 µM.

For the origin of these results see PubChem BioAssay (NCI).
